Source: publication PMC4770324 (Journal of Medicinal Chemistry, 2016)

Experiment: Chemical stability on storage

chemical stability in air: chemical instability
Compound: O=c1[nH]cnc2c(-n3cc(CCN4CCC(c5cc(F)cc(F)c5)CC4)cn3)nccc12 [Compound 54l]
